Test results published in PubChem BioAssay (NCI).
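The compound was tested at five concentrations on cells cultured in 96-well plates, with a 48-hour exposure period. The concentration for full growth arrest is given as TGI.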

Experiments:
Experiment in all cases: NCI tumour cell line growth inhibition, 48 h
[1] = test system: TK-10 renal
[2] = test system: MALME-3M melanoma
[3] = test system: UACC-62 melanoma
[4] = test system: HT29 colon
[5] = test system: LOX IMVI melanoma
[6] = test system: OVCAR-3 ovarian
[7] = test system: M14 melanoma
[8] = test system: RPMI-8226 leukemia
[9] = test system: PC-3 prostate
[10] = test system: MCF7 breast
[11] = test system: SF-295 CNS
[12] = test system: K-562 leukemia
[13] = test system: OVCAR-5 ovarian
[14] = test system: HOP-62 NSCLC
[15] = test system: CCRF-CEM leukemia
[16] = test system: SK-MEL-5 melanoma
[17] = test system: HCC-2998 colon
[18] = test system: HCT-116 colon
[19] = test system: HL-60(TB) leukemia
[20] = test system: SF-268 CNS
[21] = test system: SK-OV-3 ovarian
[22] = test system: OVCAR-4 ovarian
[23] = test system: OVCAR-8 ovarian
[24] = test system: 786-0 renal
[25] = test system: SK-MEL-28 melanoma
[26] = test system: MDA-N
[27] = test system: COLO 205 colon
[28] = test system: MOLT-4 leukemia
[29] = test system: EKVX NSCLC
[30] = test system: HS 578T breast
[31] = test system: SF-539 CNS
[32] = test system: SR leukemia
[33] = test system: ACHN renal
[34] = test system: SN12C renal
[35] = test system: HCT-15 colon
[36] = test system: SK-MEL-2 melanoma
[37] = test system: NCI-H226 lung
[38] = test system: UO-31 renal
[39] = test system: SW-620 colon
[40] = test system: RXF 393 renal
[41] = test system: U251 CNS
[42] = test system: MDA-MB-435
[43] = test system: SNB-19 CNS
[44] = test system: NCI-H522 lung
[45] = test system: DU-145 prostate
[46] = test system: NCI-H23 lung
[47] = test system: T-47D breast
[48] = test system: UACC-257 melanoma
[49] = test system: CAKI-1 renal
[50] = test system: NCI/ADR-RES ovarian
[51] = test system: KM12 colon
[52] = test system: A549 NSCLC
[53] = test system: BT-549 breast
[54] = test system: IGROV1 ovarian
[55] = test system: SNB-75 CNS
[56] = test system: A498 renal
[57] = test system: HOP-92 NSCLC
[58] = test system: NCI-H460 lung
[59] = test system: MDA-MB-231 breast

`CN/N=C(/C=C/c1ccccc1)C(C)C` showed a TGI [1] greater than 100 µM, a TGI [2] greater than 100 µM and a TGI [3] greater than 100 µM. It also gave a TGI [4] greater than 100 µM, a TGI [5] greater than 100 µM and a TGI [6] greater than 100 µM. It also gave a TGI [7] greater than 100 µM, a TGI [8] greater than 100 µM and a TGI [9] greater than 100 µM. It also gave a TGI [10] greater than 100 µM, a TGI [11] greater than 100 µM and a TGI [12] greater than 100 µM. The TGI [13] was greater than 100 µM, the TGI [14] was greater than 100 µM and the TGI [15] was greater than 100 µM. It also gave a TGI [16] greater than 100 µM, a TGI [17] greater than 100 µM and a TGI [18] greater than 100 µM. It also gave a TGI [19] greater than 100 µM, a TGI [20] greater than 100 µM and a TGI [21] greater than 100 µM. It also gave a TGI [22] greater than 100 µM, a TGI [23] greater than 100 µM and a TGI [24] greater than 100 µM. The TGI [25] was greater than 100 µM, the TGI [26] was greater than 100 µM and the TGI [27] was greater than 100 µM. The TGI [28] was greater than 100 µM, the TGI [29] was greater than 100 µM and the TGI [30] was greater than 100 µM. The TGI [31] was greater than 100 µM, the TGI [32] was greater than 100 µM and the TGI [33] was greater than 100 µM. It also gave a TGI [34] greater than 100 µM, a TGI [35] greater than 100 µM and a TGI [36] greater than 100 µM. The TGI [37] was greater than 100 µM, the TGI [38] was greater than 100 µM and the TGI [39] was greater than 100 µM. For the same molecule, the TGI [40] was greater than 100 µM, the TGI [41] was greater than 100 µM and the TGI [42] was greater than 100 µM. The TGI [43] was greater than 100 µM, the TGI [44] was greater than 100 µM and the TGI [45] was greater than 100 µM. It also gave a TGI [46] greater than 100 µM, a TGI [47] greater than 100 µM and a TGI [48] greater than 100 µM. The TGI [49] was greater than 100 µM, the TGI [50] was greater than 100 µM and the TGI [51] was greater than 100 µM. The TGI [52] was greater than 100 µM, the TGI [53] was greater than 100 µM and the TGI [54] was greater than 100 µM. It also gave a TGI [55] greater than 100 µM.
`CC[C@@]1(C[C@H]2C[C@@]3(C(=O)OC)c4[nH]c5ccccc5c4CCN3C2=S)COC2(CCCCC2)O1` gave a TGI [1] of 87.7 µM, a TGI [2] greater than 100 µM and a TGI [3] greater than 100 µM. It also gave a TGI [4] greater than 100 µM, a TGI [5] greater than 100 µM and a TGI [6] greater than 100 µM. For the same molecule, the TGI [7] was greater than 100 µM, the TGI [9] was greater than 100 µM and the TGI [10] was greater than 100 µM. The TGI [11] was greater than 100 µM, the TGI [12] was greater than 100 µM and the TGI [13] was greater than 100 µM. For the same molecule, the TGI [14] was greater than 100 µM, the TGI [15] was greater than 100 µM and the TGI [16] was 39 µM. It also gave a TGI [17] greater than 100 µM, a TGI [18] greater than 100 µM and a TGI [19] greater than 100 µM. The TGI [20] was greater than 100 µM, the TGI [21] was greater than 100 µM and the TGI [22] was greater than 100 µM. It also gave a TGI [23] greater than 100 µM, a TGI [24] greater than 100 µM and a TGI [26] greater than 100 µM. For the same molecule, the TGI [27] was greater than 100 µM, the TGI [28] was greater than 100 µM and the TGI [29] was greater than 100 µM. The TGI [56] was greater than 100 µM, the TGI [30] was greater than 100 µM and the TGI [57] was greater than 100 µM. The TGI [31] was greater than 100 µM, the TGI [32] was greater than 100 µM and the TGI [33] was greater than 100 µM. The TGI [34] was greater than 100 µM, the TGI [35] was greater than 100 µM and the TGI [36] was greater than 100 µM. It also gave a TGI [38] greater than 100 µM, a TGI [39] of 36.2 µM and a TGI [40] greater than 100 µM. The TGI [41] was greater than 100 µM, the TGI [42] was greater than 100 µM and the TGI [43] was greater than 100 µM. It also gave a TGI [44] greater than 100 µM, a TGI [45] greater than 100 µM and a TGI [46] greater than 100 µM. It also gave a TGI [47] greater than 100 µM, a TGI [48] greater than 100 µM and a TGI [58] greater than 100 µM. It also gave a TGI [49] greater than 100 µM, a TGI [50] greater than 100 µM and a TGI [51] of 67.8 µM. The TGI [52] was greater than 100 µM, the TGI [53] was 41.6 µM and the TGI [54] was greater than 100 µM. It also gave a TGI [55] greater than 100 µM.
Molecule `COC(=O)Nc1nc2ccc(NS(=O)(=O)c3ccc(Cl)cc3)cc2[nH]1` has a TGI [1] of 17.7 µM, a TGI [2] of 43.7 µM and a TGI [3] of 33.5 µM. For the same molecule, the TGI [4] was 15.5 µM, the TGI [5] was 16.9 µM and the TGI [6] was 10.7 µM. For the same molecule, the TGI [7] was 23.4 µM, the TGI [8] was 26.8 µM and the TGI [9] was 54.3 µM. The TGI [10] was 35.7 µM, the TGI [11] was 19.2 µM and the TGI [12] was greater than 100 µM. The TGI [13] was 44.6 µM, the TGI [14] was 31.5 µM and the TGI [59] was 28.5 µM. The TGI [15] was 56.9 µM, the TGI [16] was 16.7 µM and the TGI [18] was 11.1 µM. It also gave a TGI [19] of 12.6 µM, a TGI [20] of 67 µM and a TGI [21] of 44.2 µM. It also gave a TGI [22] of 51.5 µM, a TGI [23] of 54.7 µM and a TGI [24] of 56.3 µM. For the same molecule, the TGI [25] was 27.3 µM, the TGI [26] was 5.93 µM and the TGI [27] was 24.5 µM. It also gave a TGI [28] greater than 100 µM, a TGI [29] of 33.2 µM and a TGI [56] of 9.91 µM. It also gave a TGI [30] of 8.86 µM, a TGI [57] of 8.55 µM and a TGI [31] of 30.4 µM. The TGI [33] was greater than 100 µM, the TGI [34] was 72.3 µM and the TGI [35] was greater than 100 µM. It also gave a TGI [36] of 26.8 µM, a TGI [37] of 47.2 µM and a TGI [38] of 40.7 µM. The TGI [39] was greater than 100 µM, the TGI [40] was 26.4 µM and the TGI [41] was 47.5 µM. The TGI [42] was 5.5 µM, the TGI [43] was 29.6 µM and the TGI [44] was 8.19 µM. It also gave a TGI [45] of 62.6 µM, a TGI [46] of 36.9 µM and a TGI [47] of 60.7 µM. It also gave a TGI [58] of 43.1 µM, a TGI [49] of 21.1 µM and a TGI [50] of 47.7 µM. For the same molecule, the TGI [51] was 14.9 µM, the TGI [52] was 72.1 µM and the TGI [53] was 55.2 µM. The TGI [54] was 7.81 µM and the TGI [55] was 7.59 µM.
